According to patent US11571485B2, “Peptides and antibodies for detecting changes in alzheimer's disease brain and methods of use thereof” (Sanford Burnham Prebys Medical Discovery Institute, priority 2016, dated 2023):
Entries after “also recorded” stand apart in the source; their conditions may differ. Where no end group is shown, it is not given here.

Experiments:
human AD brain sections = experiment: Ex vivo overlay binding to human AD brain sections; conditions: overlay
Experimental: PFA fixed sections were incubated in PBS for 10 minutes, followed by PBS-Triton-x-100 (0.2%) for 10 minutes. Sections were rinsed with PBST, mounted in a slide holder, and subsequently washed with PBS-T during 12 minutes. Slides were blocked with blocking buffer for 60 minutes at room temperature. Then, peptides were incubated at a concentration of 10 μg/mL dissolved in concentrated blocking buffer, for three hours at room temperature. Sections were then washed with three 4-minute washes of PBS-T, and subsequently fixed with PFA for 10 minutes, followed by three 3-minute washes with PBS-T. Sections were then incubated with primary antibody at 1/200 in diluted blocking buffer overnight at 4° C. Later, sections were washed with three 4-minute washes with PBS-T. Slides were then incubated with secondary antibody at 1/200 dilution in diluted blocking buffer for 30 minutes at room temperature, followed by three 4-minute washes of PBS-T. Sections were then counterstained with DAPI for 5 minutes, washed with PBS-T and mounted.
Postmortem human brain samples were obtained from the New York Brain Bank at Columbia University, New York. The patient was a person with a diagnosis of AD neuropathologic changes ([A3, B3, C3]). The normal brain tissue was obtained from BioChain Institute Inc. (Newark, Calif.). The donor was a person without any neurologic diagnosis on detailed neuropathologic evaluation. The Parkinson's disease brain tissue was obtained from UCSD Pathology bank. Frozen brain tissue was sectioned for immunohistochemistry and ex vivo overlay binding with FAM-peptides.

[1] = test system: AD and WT mouse brain sections; experiment: Overlay binding of peptide-coated silver nanoparticles on frozen mouse brain sections
Excerpt: CASPRLSKC recognizes the AD hippocampus in tissue section overlay assay. Silver nanoparticles were coated with the CASPRLSKC peptide or a control peptide and used to overlay brain sections from AD and normal mice. Silver staining was used to visualize binding and nuclei were stained with nuclear fast red. The CASPRLSKC nanoparticles bind to elongated structures that may represent nerve fibers. These structures are not present in the normal brain.
Binding of DAG conjugated silver nanoparticles on frozen brain sections from AD or WT animals in overlay binding assay was also tested. […] This binding is restricted to the hippocampal region CA1 and the dentate gyms. Frozen coronal sections from AD and WT mice were used for overlay experiments with DAG-AgNPs. Silver staining was used to visualize binding and nuclei were stained with nuclear fast red.
Silver nanoparticles (AgNPs) with PEG coating and peptide functionality were prepared as reported previously with some modifications (Braun et al., Nature materials 13, 904-911 (2014)). AgNPs of ˜35 nm diameter were synthesized by citrate acid reduction of silver nitrate in solution. First, AgNO3 (450 mg) dissolved in 2.5 L water was stirred and heated to a boil and 50 mL water containing trisodium citrate dihydrate (500 mg, Sigma) was added. After 30 min the solution was cooled to room temperature. The resulting optical density at 405 nm was ˜10. […]

[2] = test system: human astrocytoma U251 cells; experiment: AgNP binding to U251 cells; format: cell-based
Experimental: FIG. 7 is a graphical representation showing quantity of DAG-coated silver nanoparticles (DAG-AgNPs) binding to human astrocytoma U251 cells. Cultured U251 cells were incubated with DAG-AgNPs alone, in the presence of free non-labeled control peptide, or an excess of free, non-labeled DAG (both at 200 μM), for 1 hour at 37° C. Nanoparticle binding was quantified from fluorescence micrographs using ImageJ™ software. Scale bar, 20 μm.
(§1) Cell binding experiments on U251 cells and hiPSCs were with done using peptide conjugated AgNP. U251 cells were cultured in a 96-well plate. The cells were blocked with 200 μl of 10% FCS in HBSS (Hanks' Balanced Salt Solution from Gibco) for 30 min at 37° C. Following that, DAG-AgNPs (0.5 nM concentration diluted in HBSS) alone or in the presence of free non-labeled peptide (200 μM) were incubated on the cells for 1 hour at 37° C. After washing the unbound AgNP with HBSS three times, the plates were imaged with fluorescent microscopy by looking at intrinsic emission from the FAM tag on the peptide. hiPSCs were cultured in 48 well plate and similar protocol as described above was followed, with the exception that AgNP concentration for incubation was kept at 0.15 nM. Nanoparticle binding was quantified from fluorescence micrographs using ImageJ™ software.

[3] = test system: human iPS cell-derived endothelial cells (ECs) from an AD patient; experiment: AgNP binding to hiPSC-derived brain endothelial cells; format: cell-based; conditions: for Binding to AD patient iPS cell-derived endothelial cells: AD patient vs normal donor cells
Excerpt: Human iPS cell-derived from an AD patient and from a normal individual were differentiated into endothelial cells and the cultured cells were used in an overlay assay with DAG-coated and control AgNP.
The details of human induced pluripotent stem cells (hiPSCs) derived from Alzheimer disease patients with APP duplication, and non-demented control individuals, are described previously (Israel et al., Nature 482, 216-220 (2012)). These hiPSCs were extensively characterized and have been established as an excellent human model for AD. An additional AD hiPSC line generated from dermal fibroblasts from an individual harboring a Presenilinl (PSEN1) mutation (Coriell Institute, Cat #AG06840) was used to further validate the results from the APP lines. hiPSCs were routinely maintained on mouse embryonic fibroblast as described before (Lin et al., Nat Methods 6, 805-808 (2009); Talantova et al., Proc Natl Acad Sci USA 110, E2518-2527 (2013)). Brain microvascular endothelial cells differentiation of hiPSCs was performed using a previously described protocol (Lippmann et al., Nature biotechnology 30, 783-791 (2012), with minor modifications. Briefly, feeder-free cultures of hiPSCs were allowed to spontaneously differentiate in the absence of bFGF for 5-7 days, and then transferred to Endothelial cell (EC) medium composed of human Endothelial Serum-Free Medium™ (Invitrogen) supplemented with 20 ng/ml bFGF and 1% platelet-poor plasma-derived bovine serum (PDS; Biomedical Technologies). After 1-2 days the cells were dissociated with dispase (2 mg/ml) and were plated on 12 well plates coated with a mixture of collagen IV (400 μg/ml) and fibronectin (100 μg/ml). Cells were then cultured in EC medium until they reached confluence, after which they were split and expanded to near 100% purity. BBB-type EC identity was confirmed by flow cytometry or double immunoreactivity to the hallmark efflux transporter p-glycoprotein and other EC markers (CD31, GLUT-1, PECAM, Occludin, and Claudin-5). Furthermore, the capability of these cells to make functional tight junctions and polarized efflux activity was validated using a dual chamber efflux transport assay as described before.
as §1

DAG-AgNPs: DAG-coated silver nanoparticles with PEG coating, FAM-cys-x-DAG-NH2 attached (CDAGRKQKC-NH2; not fully specified (N-terminus); also: attached via extra Cys thiol to maleimide-PEG on silver nanoparticles)
Binding to human AD brain sections (human AD brain sections): bind to sections from an AD patient with sporadic AD
Binding to AD brain sections compared to age-matched wild-type brain sections ([1]; frozen brain sections, overlay binding assay): over 10 fold
Binding to hippocampal CA1 region in AD brains versus WT brains ([1]; frozen coronal sections, hippocampal CA1 region): 14 fold
Binding to U251 cells ([2]; 1 hour at 37° C.): bound robustly to these cells, much more so than non-targeted nanoparticles
Inhibition of binding to U251 cells by free DAG ([2]; excess free non-labeled DAG, 200 μM): inhibited by co-incubation with an excess of free, non-labeled DAG
Inhibition of AgNP binding by free DAG peptide ([3]; 200 μM free non-labeled DAG): inhibited by the presence of free DAG peptide
Binding to AD patient iPS cell-derived endothelial cells [3]: bind to human iPS cell-derived endothelial cells (ECs) from an AD patient, but not to ECs derived from a normal donor; also recorded: binding to human IPS cell-derived endothelial cells (ECs) from an AD patient, but not to ECs derived from a normal donor
Binding to AD patient iPS cell-derived endothelial cells ([3]; listed as DAG-AgNP): high binding
